The numbers were not newly measured in doi:10.1101/2025.05.13.653654v1, “PEPlife2: A Updated Repository of the Half-life of Peptides” (bioRxiv, 2025), which cites them from elsewhere.

On the data set, the source says:
Our database includes various chemical modifications aimed at enhancing the stability of peptides or proteins, such as PEGylation, Fc-conjugation, amino acid replacements (e.g., Lys substitutions followed by fatty acid conjugation), D-amino acid substitutions, non-natural amino acid substitutions (e.g., Aib, Sar, pGlu), cyclization, amidation, acetylation, and others.

As for DRVYIHP [Ang(1-7)], the half-life entry (approximate values, effect of N-terminal acetylation and C-terminal amidation, matrix not given, curated database entry, ref not given) was “approximately 9 minutes”.

For CMPRLRGC [VH434], the Half life is 1.16 h.

Take cMPRLRGC [VH445]: the Half life is 3.03 h.
